Data from patent US6541463B1, “Inhibitors of type 5 and type 3 17β-hydroxysteroid dehydrogenase and methods for their use” (Endorecherche, Inc., priority 1998, dated 2003).

Key:
[1] = tested on: Shionogi mouse mammary carcinoma cells; assay: Androgenic activity: stimulation of proliferation of Shionogi cells; type: cell-based
Experimental: In column 9, the androgenic activity of preferred type 5 inhibitors expressed as the percentage of stimulation of proliferation of Shionogi cells at concentrations of 10^−7 M (left number) and 10^−6 M (right number) of inhibitor. The manner in which the stimulation is determined is described in “Other Tests; B-Androgenic/Antiandrogenic Activity”. Lower numbers are desirable. ND means that a determination was not done.
(§1) Androgenic/antiandrogenic activity of some preferred compounds has been measured using the Shionogi mouse mammary carcinoma cells.
(§2) Minimal essential culture medium (MEM), non-essential amino acids, and fetal calf serum were purchased from Flow Laboratories. In order to remove endogenous steroids, serum was incubated overnight at 4° C. with 1% activated charcoal (Norit A, Fisher) and 0.1% Dextran T-70 (Pharmacia). A 2-h supplementary adsorption was performed at 25° C. in order to further remove protein-bound steroids. Serum was also inactivated by a 20-min incubation at 56° C.
(§3) 5α-dihydrotestosterone (DHT) was obtained from Steraloids. The antiandrogen hydroxyflutamide (OH-FLU) was kindly supplied by Drs. T. L. Nagabuschan and R. Neri (Schering Corporation, Kenilworth, U.S.A.).
(§4) Shionogi male mice bearing androgen-sensitive mammary tumors were obtained from Drs. Keishi Matsumoto, Osaka, Japan, and Yvonne Lefebvre, Ottawa, Canada. For primary culture, tumors were excised and washed in ice-cold sterile 25 mM Hepes buffer (137 mM NaCl; 5 mM KCl; 0.7 mM Na2HPO4; 10 mM glucose, pH 7.2). After mincing with scissors, the tumor minces were digested for 2 h at 37° C. in Hepes buffer containing 3.8 mg/ml collagenase (Clostridium, Boehringer), 1.5 mg/ml hyaluronidase II (Sigma), and 3% bovine serum albumin fraction V (Schwartz-Mann). Dispersed cells were collected by centrifugation (500×g for 10 min), washed twice by suspension in minimal essential medium (MEM) containing 5% dextran-coated charcoal-treated fetal calf serum (DCC-FCS), 1% non-essential amino acids, 10 IU/ml penicillin, 50 μg/ml streptomycin, and 100 nM dihydrotestosterone (DHT) (Steraloids).
(§5) Cells were plated in the same medium at a density of 75 000 cells/ml in 75 cm^2 flasks under an atmosphere of 5% carbon dioxide in air at 37° C. The medium was changed weekly. The steroids and antisteroids were dissolved in ethanol and kept in stock solutions chosen to yield final ethanol concentrations less than 0.01% in the culture medium.
(§6) Cells were subcultured at near-confidence by gentle digestion in a solution of 0.1% pancreatin (Flow Laboratories) in Hepes buffer containing 3 mM ethylenediaminetetraacetic acid (EDTA) (pH 7.2). Cells were pelleted by centrifugation, resuspended in culture medium, counted in a Coulter counter, and replated as described above. Soft agar cloning was performed as described (Stanley et al., Cell 10: 35-44, 1977) in the presence of 100 nM DHT.
(§7) Cells were plated in 24-well plates at a density of 20 000 cells/well. The indicated increasing concentrations of agents were added to triplicate dishes, and cells were grown for 10-12 days with changes of medium every 3-4 days. Cell number was measured by direct counting in a Coulter counter.
(§8) ED50 values of action of DHT and glucocorticoids were calculated according to a least-square regression as described (Rodbard, Endocrinology 94: 1427-1431, 1974). Statistical significance was calculated according to a multiple-range test (Kramer, Biometrics 12: 307-310,1956).

[2] = biological target: T1, human type 2 17β-hydroxysteroid dehydrogenase (Homo sapiens, UniProt P37059); assay: Enzymatic assay for type 2 17β-HSD; type: biochemical; conditions: Table 4′; bracketed values, 3 · 10^−8M
T1 construct: expressed in transfected cells; host or cells: 293 cells, transient transfection; microsomal fraction (100 000×g pellet)
T1 sequence (P37059 1-387): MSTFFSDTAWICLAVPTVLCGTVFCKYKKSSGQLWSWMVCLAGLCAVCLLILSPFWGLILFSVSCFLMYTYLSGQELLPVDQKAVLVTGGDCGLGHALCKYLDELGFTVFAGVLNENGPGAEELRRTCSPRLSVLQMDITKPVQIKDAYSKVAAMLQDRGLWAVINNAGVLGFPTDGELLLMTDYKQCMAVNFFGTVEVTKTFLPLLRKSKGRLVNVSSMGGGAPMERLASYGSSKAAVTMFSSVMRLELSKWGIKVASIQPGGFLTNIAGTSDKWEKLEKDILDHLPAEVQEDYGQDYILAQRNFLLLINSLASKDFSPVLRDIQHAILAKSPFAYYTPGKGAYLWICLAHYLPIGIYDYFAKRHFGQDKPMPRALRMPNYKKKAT
Experimental: The manner in which IC50 was determined is described in “Efficacy of Preferred Inhibitors: VI. Enzymatic assay for types 1, 2, and 3 17β-HSD and types 1 and 3 3α-HSD”. […] numbers of IC50 are desirable. Blank means that a determination was not done. […]
Enzyme sources. 293 cells transiently transfected with expression vectors encoding types 1, 2 and 3 17β-HSD (Luu-The et al., J. Steroid Biochem. Molec. Biol., 55: 581-587, 1995), types 1 and 2 5α-reductase (Luu-The et al., J. Invest. Dermatol., 102: 221-226, 1994) and types 1 and 3 3α-HSD (Dufort et al. Biochem. Biophys. Res. Commun. 228: 474-479, 1996), using the calcium phosphate procedure (Kingston et al., In: Current Protocols in Molecular Biology. Edited by E. M. Ausbel, R. Brent, R. E. Kingston, D. D. Moore, J. G. Seidman, J. A. Smith, K. Struhl. John Wiley & Sons, New York, pp. 9.1.1-9.1.9, 1991; Luu-The et al., J. Invest. Dermatol., 102: 221-226, 1994). For assays using cell subfractions, cells were sonicated in 50 mM sodium phosphate buffer (pH 7.4), containing 20% glycerol and 1 mM EDTA and centrifuged at 10 000×g for 30 min before centrifugation for 100 000×g for 1 h to separate the mitochondrial and microsomal fractions, respectively. The cytosol fractions (100 000×g supernatant) was used to determine type 1 activity while the microsomal fraction (pellet at 100 000×g) was used for measurement of types 2 and 3 17β-HSD activities.
Incubation. The enzymatic reaction was carried out at 37° C. in 1 ml of 50 mM sodium phosphate buffer, pH 7.4, containing 20% glycerol, 1 mM EDTA, and 2 mM cofactors (NADPH or AND^+) for 1 h in the presence of 0.1 μM ^14C-labeled substrate: estrone and 4-dione for types 1 and […] 17β-HSD, respectively, testosterone for type 2 17β-HSD as well as types 1 and 2 5α-reductases, DHT for types 1 and 3 3α-HSD activities, and the indicated concentration of inhibitor.
Extraction of metabolites, migration on TLC and quantification were as described above for the assay of type 5 17β-HSD.

[3] = tested on: Shionogi mouse mammary carcinoma cells; assay: Antiandrogenic activity: inhibition of DHT-induced proliferation of Shionogi cells; type: cell-based; conditions: Table 4′, DHT-induced proliferation
Experimental: The manner in which the inhibition is determined is described in “Other Tests; B-Androgenic/Antiandrogenic Activity”. Lower numbers are desirable. ND means that a determination was not done.
as §1, §2, §3, §4, §5, §6, §7, §8

[4] = biological target: T2, human type 5 17β-hydroxysteroid dehydrogenase (Homo sapiens, UniProt P42330); assay: Inhibition of human type 5 17β-HSD activity in transfected 293 cells; type: cell-based; parameters: Inhibition Type V 17B-HSD % Inh. At 3 · 10^−7 (second value in parentheses): concentration or dose not given beside the values
T2 construct: screen again a human placental λgt11 cDNA to get the full length cDNA clone; expressed in transfected cells; host or cells: human embryonal kidney 293 cells (pCMV / pCMV-neo vector)
T2 sequence (P42330 1-323): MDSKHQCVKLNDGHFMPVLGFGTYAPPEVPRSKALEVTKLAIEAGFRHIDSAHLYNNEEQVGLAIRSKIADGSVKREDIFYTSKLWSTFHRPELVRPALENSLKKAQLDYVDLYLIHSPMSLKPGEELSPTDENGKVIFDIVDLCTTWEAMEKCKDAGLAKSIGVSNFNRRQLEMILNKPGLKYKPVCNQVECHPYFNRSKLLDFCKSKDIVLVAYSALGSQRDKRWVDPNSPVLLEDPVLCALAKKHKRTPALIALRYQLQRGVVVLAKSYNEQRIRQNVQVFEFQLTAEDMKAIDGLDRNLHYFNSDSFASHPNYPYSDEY
Experimental: The manner in which IC50 was determined is described in “Efficacy of the Preferred Inhibitors”. Lower numbers for IC50 are desirable.
Using a oligoprimer pair (5′-GGA-AAT-CGT-GAC-AGG-GAA-TGG-ATT-CCA-AAC-AG-3′, 5′-GGA-ATT-CTT-TAT-TGT-ATT-TCT-GGC-CTA-TGG-AGT-GAG-3′) derived from human aldoketoreductase (Qin et al., J. Steroid Biochem. Molec. Biol. 46: 673-679, 1993) and polymerase chain reaction (PCR), we have amplified from a human placental λgt11 cDNA library (Clontech Laboratories Inc., Palo Alto, Calif.) a cDNA fragment that was used as probe to screen again a human placental λgt11 cDNA to get the full length cDNA clone. The amplified cDNA fragment was purified on agarose gel and labeled with [α^32P]dCTP (Amersham Corp.) using the random primer labeling kit from Pharmacia Inc. PCR amplification reaction medium contained 50 mM KCl, 10 mM Tris-HCl, pH 8.3, 0.1% gelatin, 1 mM MgCl2, 250 μM dNTP, 0.25 μM oligonucleotide primers, and 200 ng of DNA prepared from human placental λgt11 cDNA library. The aqueous phase was overlaid with 75 μL of mineral oil to avoid evaporation. The mixture was heated at 98° C. for 5 min, following the temperature reduction to 72° C., 1 unit of Taq DNA polymerase was added. Using a DNA Thermal Cycler (Perkin-Elmer Corp.), 30 cycles of amplification were carried out using a step program (94° C., 1 min; 60° C., 1 min; and 72° C., 1 min)/cycle.
Approximately 5×10^5 recombinant phage plaques were screened with 1.5×10^6 cpm/ml of the probe. Prehybridization was performed for 4 h at 42° C. in 50% formamide, 5× Denhardt's solution (1× Denhardt's being 0.02% polyvinyl pyrrolidone, 0.02 Ficoll, 0.02 bovine serum albumin), 5×SSPE (1×SSPE being 0.18M NaCl, 10 mM NaH2PO4, pH 7.4, 1 mM EDTA), 0.1% SDS, and 100 μg/ml yeast tRNA. The probe was denatured by heating at 100° C. for 5 min, before being added to the hybridization solution at 42° C. overnight. Filters were then washed twice at room temperature in 2×SSC (1×SSC being […], pH 7.0), 0.1% SDS, and twice in 0.1×SSC, 0.1% SDS at 60° C. Positive recombinant plaques were purified by replating twice and grown in liquid culture. Phage DNA were isolated by centrifugation for 90 min at 105,000×g, and DNA was then isolated by phenol extraction and precipitation with isopropanol (Karen et al. 1987; In: Current Protocols in Molecular Biology (F. M. Ausubel, R. Brent, E. Kingston, D. D. Moore, T. G. Seidman, T. A. Smith and K. Struhl, eds), Wiley & Sons, New York, pp. 1.13.1-1.13.6).
The phage DNA were digested with EcoRI restriction enzymes and the resulting cDNA fragments were inserted into the EcoRI site downstream to the cytomegalovirus (CMV) promoter of the pCMV vector (kindly provided by Dr. Matthew, Cold Spring Harbor, N.Y., USA). Recombinant pCMV plasmids were amplified in Escherichia Coli DH5α competent cells, and were isolated by alkaline lysis procedure (Maniatis et al., In: Molecular cloning: a laboratory manual, Cold Spring Harbor Laboratory., 1982). Sequencing of double-stranded plasmid DNA was performed according to the dideoxy chain termination method (Sanger et al., PNAS 74: 5453-5467, 1977) using a T7 DNA polymerase sequencing kit (Pharmacia LKB Biotechnology). To avoid errors, all sequences were determined by sequencing both strands of the DNA. Oligonucleotide primers were synthesized in our laboratory with a 394 DNA/RNA synthesizer (Applied Biosystem).
The pCMV vector contain 576 nucleotides of the pCMV promoter (followed by 432 bp of small t intron (fragment 4713-4570) and poly adenylation signal (2825-2536)of SV40, followed by 1989 bp of the Pvu II(628)-AatII (2617) fragment from pUC 19 vector (New England Biolabs) that contains an E. Coli origin of replication and an ampicillin resistance gene for propagation in E. Coli. […]

CCC1(CC)CC[C@@]2(CC[C@H]3[C@@H]4CCc5cc(OC)ccc5[C@H]4CC[C@@]32C)OC1=O [EM-1419, 3-Methoxy-1,3,5(10)-estratrien-17(R)-spiro-2′-(5′,5′-diethyl-6′-oxo)tetrahydropyran]
Androgenic Activity Shionogi, Basal E^−6 ([1]; Table 4′, E^−6): −29% | Androgenic Activity Shionogi, Basal E^−7 ([1]; Table 4′, E^−7): 16% | Inhibition Type 2 17β-HSD Activity [% Inh. at 3 · 10^−8M] [2]: [74] % | Antiandrogenic Activity Shionogi, DHT E^−6 ([3]; E^−6 (10^−6 M)): −64% | Antiandrogenic Activity Shionogi, DHT E^−7 ([3]; E^−7): 2%

CC(=O)O[C@]1(C(C)=O)CC[C@H]2[C@@H]3C[C@H](C)C4=CC(=O)CC[C@]4(C)[C@H]3CC[C@@]21C [Medroxyprogesterone acetate, reference compound]
inhibition of type 5 17β-hydroxysteroid dehydrogenase (in words) [4]: inhibit that type 5 enzyme

CC12CCC(=O)C=C1C=CC1C2CCC2(C)C(=O)C3CCCC3C12 (stereo not shown) [SA-208-59]
Inhibition Type V 17B-HSD % Inh. At 3 · 10^−7 (first value in parentheses) ([4]; first of two concentrations, 3 · 10^−7): (72% | Inhibition Type V 17B-HSD % Inh. At 3 · 10^−7 (second value in parentheses) ([4]; second of two concentrations, 3 · 10^−7): 88) %

CC(=O)O[C@]1(C(C)=O)CC[C@H]2[C@@H]3C=C(Cl)C4=CC(=O)CC[C@]4(C)[C@H]3CC[C@@]21C [chlormadinone acetate, reference compound]
inhibition of type 5 17β-hydroxysteroid dehydrogenase (in words) [4]: inhibit that type 5 enzyme

CCCCCO[C@]1(C(C)=O)CC[C@H]2[C@@H]3C=C(C)C4=CC(=O)CC[C@]4(C)[C@H]3CC[C@@]21C [EM-1127, 6-Methyl-17α-pentyloxy-4,6-pregnadien-3,20-dione]
Inhibition Type V 17β-HSD % Inh. ([4]; at 3.10^−6): 91) % | Inhibition Type V 17β-HSD % Inh. ([4]; at 3.10^−7): (71% | Androgenic Activity Shionogi, Basal ([1]; E^−6): 92 | Androgenic Activity Shionogi, Basal ([1]; E^−7): 85
